Results reported in patent US20100240711A1, “SOLID PREPARATION COMPRISING NPYY5 RECEPTOR ANTAGONIST” (SHIONOGI & CO., LTD., priority 2007, published 2010).
In brackets after ≈: the same amount, converted by molar mass.

Experiment: Solubility of S-2367 in water (Japanese Pharmacopoeia, Dissolution Test, Second Solution)
Format: physicochemical
Conditions: 37 °C, pH 6.8, aqueous buffer
From the text: A particularly preferable compound is trans-N-(5-trifluoromethylpyridin-2-yl)-4-(tertiarybutylsulfonylamino)cyclohexanecarboxamide (S-2367). The compound is a crystal under a room temperature.
The NPYY5 receptor antagonist of the present invention is not particularly limited as far as it is a drug which can be orally administered, but is preferably a drug having low solubility in water, so-called poorly water-soluble drug.

solubility: ~3.5 µg/mL (≈ 8.59 µM)
SMILES: CC(C)(C)S(=O)(=O)N[C@H]1CC[C@H](C(=O)Nc2ccc(C(F)(F)F)cn2)CC1 [Example S-2367, trans-N-(5-trifluoromethylpyridin-2-yl)-4-(tertiarybutylsulfonylamino)cyclohexanecarboxamide]
